Assay results: ChEMBL document CHEMBL5107949, “Design, synthesis, and antibacterial activity of N-(trifluoromethyl)phenyl substituted pyrazole derivatives” (RSC Med Chem, 2021)
Values after ≈ are worked out from the molar mass of the structure shown.

Columns and labels:
Format in all cases: functional
[1] = system: Staphylococcus aureus; experiment: Antibacterial activity against antibiotic susceptible Staphylococcus aureus ATCC 25923 assessed as inhibition of bacterial growth by CLSI protocol based broth microdilution method
[2] = system: Staphylococcus aureus; experiment: Antibacterial activity against antibiotic resistant Staphylococcus aureus ATCC 33591 assessed as inhibition of bacterial growth by CLSI protocol based broth microdilution method
[3] = system: Staphylococcus aureus; experiment: Antibacterial activity against antibiotic resistant Staphylococcus aureus ATCC 33592 assessed as inhibition of bacterial growth by CLSI protocol based broth microdilution method
[4] = system: Staphylococcus aureus; experiment: Antibacterial activity against antibiotic resistant Staphylococcus aureus BAA-2312 assessed as inhibition of bacterial growth by CLSI protocol based broth microdilution method
[5] = system: Staphylococcus aureus; experiment: Antibacterial activity against antibiotic resistant Staphylococcus aureus ATCC 700699 assessed as inhibition of bacterial growth by CLSI protocol based broth microdilution method
[6] = system: Staphylococcus epidermidis; experiment: Antibacterial activity against antibiotic resistant Staphylococcus epidermidis ATCC 700296 assessed as inhibition of bacterial growth by CLSI protocol based broth microdilution method
[7] = system: Bacillus subtilis; experiment: Antibacterial activity against antibiotic resistant Bacillus subtilis ATCC 6623 assessed as inhibition of bacterial growth by CLSI protocol based broth microdilution method
[8] = system: Enterococcus faecalis; experiment: Antibacterial activity against antibiotic susceptible Enterococcus faecalis ATCC 29212 assessed as inhibition of bacterial growth by CLSI protocol based broth microdilution method
[9] = system: Enterococcus faecium; experiment: Antibacterial activity against vancomycin resistant Enterococcus faecium ATCC 700221 assessed as inhibition of bacterial growth by CLSI protocol based broth microdilution method

Row | SMILES | MIC [1] | MIC [2] | MIC [3] | MIC [4] | MIC [5] | MIC [6] | MIC [7] | MIC [8] | MIC [9]
1 | COc1ccc(NCc2cn(-c3ccc(C(F)(F)F)cc3)nc2-c2ccc(C(=O)O)cc2)cc1C(F)(F)F | 12.5 µg/mL (≈ 23.3 µM) | 25 µg/mL (≈ 46.7 µM) | 12.5 µg/mL (≈ 23.3 µM) | 12.5 µg/mL (≈ 23.3 µM) | 6.25 µg/mL (≈ 11.7 µM) | 25 µg/mL (≈ 46.7 µM) | 6.25 µg/mL (≈ 11.7 µM) | 25 µg/mL (≈ 46.7 µM) | 12.5 µg/mL (≈ 23.3 µM)
2 | O=C(O)c1ccc(-c2nn(-c3ccc(C(F)(F)F)cc3)cc2CNc2ccc(F)c(F)c2)cc1 | 12.5 µg/mL (≈ 26.4 µM) | 25 µg/mL (≈ 52.8 µM) | 6.25 µg/mL (≈ 13.2 µM) | 25 µg/mL (≈ 52.8 µM) | 6.25 µg/mL (≈ 13.2 µM) | 25 µg/mL (≈ 52.8 µM) | 12.5 µg/mL (≈ 26.4 µM) | 25 µg/mL (≈ 52.8 µM) | 12.5 µg/mL (≈ 26.4 µM)
3 | CN1CCN(c2ccc(NCc3cn(-c4ccc(C(F)(F)F)cc4)nc3-c3ccc(C(=O)O)cc3)cc2C(F)(F)F)CC1 | 25 µg/mL (≈ 41.4 µM) | 50 µg/mL (≈ 82.8 µM) | 12.5 µg/mL (≈ 20.7 µM) | 25 µg/mL (≈ 41.4 µM) | 12.5 µg/mL (≈ 20.7 µM) |  | 25 µg/mL (≈ 41.4 µM) | 25 µg/mL (≈ 41.4 µM) | 25 µg/mL (≈ 41.4 µM)
4 | O=C(O)c1ccc(-c2nn(-c3ccc(C(F)(F)F)cc3)cc2CNc2ccc(F)c(Cl)c2)cc1 | 3.12 µg/mL (≈ 6.37 µM) | 12.5 µg/mL (≈ 25.5 µM) | 3.12 µg/mL (≈ 6.37 µM) | 6.25 µg/mL (≈ 12.8 µM) | 3.12 µg/mL (≈ 6.37 µM) | 12.5 µg/mL (≈ 25.5 µM) | 3.12 µg/mL (≈ 6.37 µM) | 12.5 µg/mL (≈ 25.5 µM) | 6.25 µg/mL (≈ 12.8 µM)
5 | O=C(O)c1ccc(-c2nn(-c3ccc(C(F)(F)F)cc3)cc2CNc2cccc(F)c2)cc1 | 25 µg/mL (≈ 54.9 µM) | 25 µg/mL (≈ 54.9 µM) | 25 µg/mL (≈ 54.9 µM) | 25 µg/mL (≈ 54.9 µM) | 12.5 µg/mL (≈ 27.4 µM) | 25 µg/mL (≈ 54.9 µM) | 12.5 µg/mL (≈ 27.4 µM) | 25 µg/mL (≈ 54.9 µM) | 12.5 µg/mL (≈ 27.4 µM)
6 | Cc1cc(NCc2cn(-c3ccc(C(F)(F)F)cc3)nc2-c2ccc(C(=O)O)cc2)ccc1F | 12.5 µg/mL (≈ 26.6 µM) | 25 µg/mL (≈ 53.3 µM) | 6.25 µg/mL (≈ 13.3 µM) | 25 µg/mL (≈ 53.3 µM) | 6.25 µg/mL (≈ 13.3 µM) | 25 µg/mL (≈ 53.3 µM) | 12.5 µg/mL (≈ 26.6 µM) | 25 µg/mL (≈ 53.3 µM) | 12.5 µg/mL (≈ 26.6 µM)
7 | O=C(O)c1ccc(-c2nn(-c3ccc(C(F)(F)F)cc3)cc2CNc2ccc(F)c([N+](=O)[O-])c2)cc1 | 12.5 µg/mL (≈ 25 µM) | 25 µg/mL (≈ 50 µM) | 12.5 µg/mL (≈ 25 µM) | 25 µg/mL (≈ 50 µM) | 6.25 µg/mL (≈ 12.5 µM) | 25 µg/mL (≈ 50 µM) | 12.5 µg/mL (≈ 25 µM) |  | 
8 | O=C(O)c1ccc(-c2nn(-c3ccc(C(F)(F)F)cc3)cc2CNc2ccc(F)cc2)cc1 | 25 µg/mL (≈ 54.9 µM) | 25 µg/mL (≈ 54.9 µM) | 25 µg/mL (≈ 54.9 µM) | 25 µg/mL (≈ 54.9 µM) | 12.5 µg/mL (≈ 27.4 µM) | 50 µg/mL (≈ 110 µM) | 25 µg/mL (≈ 54.9 µM) |  | 25 µg/mL (≈ 54.9 µM)
9 | CSc1ccc(NCc2cn(-c3ccc(C(F)(F)F)cc3)nc2-c2ccc(C(=O)O)cc2)cc1 | 12.5 µg/mL (≈ 25.9 µM) | 25 µg/mL (≈ 51.7 µM) | 25 µg/mL (≈ 51.7 µM) | 25 µg/mL (≈ 51.7 µM) | 12.5 µg/mL (≈ 25.9 µM) | 50 µg/mL (≈ 103 µM) | 25 µg/mL (≈ 51.7 µM) | 25 µg/mL (≈ 51.7 µM) | 12.5 µg/mL (≈ 25.9 µM)
10 | O=C(O)c1ccc(-c2nn(-c3ccc(C(F)(F)F)cc3)cc2CNc2ccc([N+](=O)[O-])cc2)cc1 | 25 µg/mL (≈ 51.8 µM) | 25 µg/mL (≈ 51.8 µM) | 12.5 µg/mL (≈ 25.9 µM) | 25 µg/mL (≈ 51.8 µM) | 12.5 µg/mL (≈ 25.9 µM) | 25 µg/mL (≈ 51.8 µM) | 12.5 µg/mL (≈ 25.9 µM) | 25 µg/mL (≈ 51.8 µM) | 25 µg/mL (≈ 51.8 µM)
11 | O=C(O)c1ccc(-c2nn(-c3ccc(C(F)(F)F)cc3)cc2CNc2ccccc2)cc1 | 25 µg/mL (≈ 57.2 µM) | 50 µg/mL (≈ 114 µM) | 25 µg/mL (≈ 57.2 µM) | 25 µg/mL (≈ 57.2 µM) | 25 µg/mL (≈ 57.2 µM) | 25 µg/mL (≈ 57.2 µM) | 25 µg/mL (≈ 57.2 µM) |  | 25 µg/mL (≈ 57.2 µM)
12 | O=C(O)c1ccc(-c2nn(-c3ccc(C(F)(F)F)cc3)cc2CNc2cccc(Cl)c2F)cc1 | 3.12 µg/mL (≈ 6.37 µM) | 6.25 µg/mL (≈ 12.8 µM) | 3.12 µg/mL (≈ 6.37 µM) | 6.25 µg/mL (≈ 12.8 µM) | 3.12 µg/mL (≈ 6.37 µM) | 12.5 µg/mL (≈ 25.5 µM) | 1.56 µg/mL (≈ 3.18 µM) | 12.5 µg/mL (≈ 25.5 µM) | 6.25 µg/mL (≈ 12.8 µM)
13 | COc1ccc(NCc2cn(-c3ccc(C(F)(F)F)cc3)nc2-c2ccc(C(=O)O)cc2)cc1 | 50 µg/mL (≈ 107 µM) |  | 25 µg/mL (≈ 53.5 µM) |  | 25 µg/mL (≈ 53.5 µM) |  | 25 µg/mL (≈ 53.5 µM) |  | 
